Reference: patent US20160213733A1, “CHARACTERIZATION OF RICE” (Phytoquest Limited, priority 2013, published 2016)

Legend:
[1] = tested on: digestive enzymes of rat intestinal acetone powder extract; assay: Rat digestive enzyme assays, all activities measured; assay type: biochemical
Description: (§1) Rat intestinal acetone powder extract was purchased from Sigma (11630 lot SLBB6071V) to give results more closely related to digestion. 100 mg of the acetone powder was mixed with 1 ml cold PBS homogenised, sonicated briefly and then spun at 12K rpm for 3 mins.

[2] = tested on: alpha-glucosidase activity of rat intestinal acetone powder extract; assay: Rat digestive enzyme assay, PNP α-D-glucoside substrate; assay type: biochemical
Description: as §1

[3] = in vivo; cited from earlier work
[4] = tested on: rodent pancreatic cell; settings: rodent pancreatic cell studies; cited from earlier work

| Compound | inhibition of the digestive enzymes / activities measured (in words) [1] | inhibition of the alpha-glucosidase activity (in words) [2] | effective dose against health risks of excessive intake of fast-digestible carbohydrates [3] | postprandial blood glucose (in words) [3] | glucose induced-insulin secretion (in words) [4] |
| --- | --- | --- | --- | --- | --- |
| OC[C@H]1NCC[C@H](O)[C@H]1O [3,4-diepi fagomine, 3,4-diepifagomine] | inhibited none of the activities measured | – | – | – | – |
| OC[C@H]1NCC[C@H](O)[C@@H]1O [3-epifagomine] | inhibited none of the activities measured | – | – | – | – |
| OC[C@H]1NCC[C@@H](O)[C@@H]1O [fagomine, 1,2-dideoxynojirimycin] | – | inhibited | 1 mg/kg | lowers postprandial blood glucose | potentiate glucose induced-insulin secretion |
